{"source": "patent US9453244B2", "about": "“Method for producing a monoalkene by enzymatic conversion of an alkyl monoester” (Scientist of Fortune S.A., priority 2012, dated 2016)", "key": {"[1]": {"test_system": "purified terpene synthases", "experiment": "Propylene production from propan-2-yl diphosphate with purified terpene synthases (headspace GC/FID)", "assay_type": "biochemical", "conditions": "50 mM substrate, 5 mg terpene synthase in 0.5 ml, 37° C., 60 hours", "protocol": "(§1) The enzymatic assays were carried out under the following conditions: 50 mM Tris-HCl pH 7.5 100 mM MgCl2 50 mM KCl 5 mM DTT 50 mM propan-2-yl diphosphate 5 mg of the terpene synthase was added to 0.5 ml of reaction mixture. An enzyme-free control reaction was carried out in parallel. Assays were incubated at 37° C. for 60 hours in a 1.5 ml sealed glass vial (Interchim) with shaking. One ml of the headspace phase was then collected and injected into a gas chromatograph Varian 430-GC equipped with a flame ionization detector (FID). Nitrogen was used as carrier gas with a flow rate of 1.5 mL/min. Volatile compounds were chromatographically separated on RT-Alumina Bond/Na2SO4 column (Restek) using an isothermal mode at 130° C. The enzymatic reaction product was identified by comparison with propylene standard (Sigma). Under these GC conditions, the retention time for propylene was 2.8 min. […] Gas chromatography-mass spectrometry (GC-MS) was then used to confirm the identity of the product detected by gas chromatography with flame ionization. The samples were analyzed on a Varian 3400 CX gas chromatograph equipped with Varian Saturn 3 mass selective detector. The mass spectrum of propylene obtained by enzymatic conversion of propan-2-yl diphosphate was similar to the one of commercial propylene (FIG. 3)."}, "[2]": {"target": "T1, isoprene synthase from Pueraria montana var. lobata (Pueraria montana var. lobata, UniProt Q6EJ97)", "T1 construct": "6xHis (N); made in house; host or cells: E. coli BL21(DE3), pET 25b(+)", "T1 sequence (Q6EJ97 46-608)": "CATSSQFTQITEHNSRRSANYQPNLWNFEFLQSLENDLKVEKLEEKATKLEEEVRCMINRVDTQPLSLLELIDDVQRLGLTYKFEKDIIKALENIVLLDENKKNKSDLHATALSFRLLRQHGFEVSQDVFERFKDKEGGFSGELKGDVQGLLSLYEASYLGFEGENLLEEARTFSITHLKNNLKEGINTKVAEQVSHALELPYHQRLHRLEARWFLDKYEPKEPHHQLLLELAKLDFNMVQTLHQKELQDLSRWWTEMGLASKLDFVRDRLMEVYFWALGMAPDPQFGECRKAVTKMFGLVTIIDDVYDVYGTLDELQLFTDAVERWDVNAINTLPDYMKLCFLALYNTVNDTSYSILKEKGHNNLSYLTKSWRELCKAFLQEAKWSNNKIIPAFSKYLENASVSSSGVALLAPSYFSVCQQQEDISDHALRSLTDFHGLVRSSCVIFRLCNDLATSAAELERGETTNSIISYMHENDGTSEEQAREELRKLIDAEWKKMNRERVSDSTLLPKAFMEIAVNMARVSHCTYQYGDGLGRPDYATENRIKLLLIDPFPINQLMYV", "experiment": "GC-MS confirmation of propylene produced from propan-2-yl diphosphate in the enzymatic reaction", "assay_type": "biochemical", "conditions": "FIG. 3", "protocol": "as §1, with “5” for “The enzymatic assays were carried out under the following conditions: 50 mM Tris-HCl pH 7.5 100 mM MgCl2 50 mM KCl 5 mM DTT 50 mM propan-2-yl diphosphate 5”"}}, "data": [{"substance": "propan-2-yl diphosphate", "values": [{"measurement": "propylene production from the substrate (enzymatic conversion)", "setting": "[1]; pH 7.5", "value": "significant production of propylene"}, {"measurement": "propylene production from the substrate (enzymatic conversion)", "setting": "[1]; pH 7.5, listed as propan-2-yl", "value": "able to convert propan-2-yl into propylene"}, {"measurement": "propylene produced from the substrate, identity confirmed by mass spectrum", "setting": "[2]", "value": "propylene produced"}]}]}
